# Reference: article PMC7079210 (Chembiochem, 2019)
# Target: PhdB (phenylacetate decarboxylase), sewage culture version (uncultured Acidobacteriota bacterium, UniProt A0A2P1UAH0)
# Type: biochemical
# Sequence of PhdB (phenylacetate decarboxylase), sewage culture version (A0A2P1UAH0 1-839): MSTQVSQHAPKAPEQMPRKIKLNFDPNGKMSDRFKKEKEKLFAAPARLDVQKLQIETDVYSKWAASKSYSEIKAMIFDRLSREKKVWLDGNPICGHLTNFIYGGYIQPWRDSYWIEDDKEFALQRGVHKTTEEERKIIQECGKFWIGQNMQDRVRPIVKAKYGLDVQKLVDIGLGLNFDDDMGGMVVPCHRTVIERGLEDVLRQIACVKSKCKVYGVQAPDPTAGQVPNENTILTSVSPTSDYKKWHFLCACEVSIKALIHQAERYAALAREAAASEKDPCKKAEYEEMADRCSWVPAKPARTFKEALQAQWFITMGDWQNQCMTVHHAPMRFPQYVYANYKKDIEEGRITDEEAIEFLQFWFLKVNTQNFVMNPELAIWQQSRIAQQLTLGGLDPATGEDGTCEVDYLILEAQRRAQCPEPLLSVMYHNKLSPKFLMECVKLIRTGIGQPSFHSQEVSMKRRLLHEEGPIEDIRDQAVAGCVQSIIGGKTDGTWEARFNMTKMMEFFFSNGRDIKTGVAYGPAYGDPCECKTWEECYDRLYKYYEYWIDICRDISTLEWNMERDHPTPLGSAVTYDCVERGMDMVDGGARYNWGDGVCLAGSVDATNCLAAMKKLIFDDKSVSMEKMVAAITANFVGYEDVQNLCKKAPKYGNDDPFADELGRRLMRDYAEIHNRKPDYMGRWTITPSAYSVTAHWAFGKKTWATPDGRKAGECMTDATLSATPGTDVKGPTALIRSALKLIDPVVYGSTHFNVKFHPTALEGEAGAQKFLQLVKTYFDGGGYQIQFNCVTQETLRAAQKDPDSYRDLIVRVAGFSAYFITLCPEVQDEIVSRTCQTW
smiles,measurement,value
"O=C(O)C(F)(F)c1ccccc1 [α,α‐difluorophenylacetate]",Ki,370 ± 30 µM
